{
  "source": "BindingDB's records for doi:10.1016/s0960-894x(98)00106-1",
  "about": "(Oregon State University, 1999)",
  "test": "Compound was evaluated for the inhibition of L-pipecolate oxidase(LPO) isolated from frozen Rhesus monkey liver",
  "data": [
    {"smiles": "O=C(O)[C@H]1NC[C@@H]2O[C@@H]21", "note": "[(1R,2S,5S)-6-Oxa-3-aza-bicyclo[3.1.0]hexane-2-carboxylic acid]", "values": [
      {"measurement": "IC50", "value": 200, "unit": "µM"}
    ]}
  ]
}
